Measured values from patent publication US20060211749A1, “Treatment with omega-3 fatty acids and PPAR agonist and/or antagonist and a combination product thereof” (priority 2004, published 2006).

Test: Case of a subject with familial hypertriglyceridemia: blood lipid levels on fenofibrate alone, then on concomitant Omacor and fenofibrate
Assay type: in vivo, human
Design: HDL-Cholesterol level / Non-HDL-Cholesterol level: unit not given here
[1] = same subject, fenofibrate alone vs one month of concomitant therapy

## CC(C)OC(=O)C(C)(C)Oc1ccc(C(=O)c2ccc(Cl)cc2)cc1 [Fenofibrate, 2-[4-(4-chlorobenzoyl)phenoxy]-2-methyl-propanoic acid, 1-methylethyl ester]
person, fenofibrate (Antara 130 mg QD) about 2 weeks, then plus Omacor 4 grams/day QD for one month
  TG level: 749 mg/dL
[1]
  HDL-Cholesterol level: 28
  Non-HDL-Cholesterol level: 252
  Total-Cholesterol level: 280 mg/dL
